Literature values, collected in patent publication US20050266079A1, “Process for making aqueous coated beadlets” (SmithKline Beecham Corporation, priority 1999, published 2005).

Settings: in vivo; cited from earlier work

SMILES: CN[C@@H](C)[C@@H](O)c1ccccc1.Cl [Pseudoephedrine HCl, (1S, 2S)-2-Methylamino-1-phenyl-1-propanol hydrochloride]
- elimination half life: 5 to 8 h
